Here are results for 18 molecules from US10590393B2, “Retinoic acid enhanced human stem cell derived blood brain barrier model” (Wisconsin Alumni Research Foundation, priority 2012, dated 2020).

Read-outs that look alike come from different tables or passages of the source.

The test system of data set [1] is iPSC-derived BMECs. The data set can be described thus: Test of compounds for the ability to mimic the activity of RA (elevated TEER). The format is cell-based, human. The settings on record: for induction of elevated TEER: ability to mimic the activity of RA. From the text:
Further, Applicants tested a list of compounds for the ability to mimic the activity of RA.
A typical retinoic acid-enhanced blood brain barrier is created as described below and in the figures. Retinoic acid suitable for the present invention may be obtained from commercial sources such as Sigma-Aldrich. […] Both types of RA are suitable for the present invention.

Data set [2] in a line: in vitro. The conditions noted are these: human, permeability. Here is the method: (§1) To determine Pe values for radiolabeled compounds, each compound was diluted to 0.4 μCi in transport buffer (distilled water with 0.12 M NaCl, 25 mM NaHCO3, 3 mM KCl, 2 mM MgSO4, 2 mM CaCl2, 0.4 mM K2HPO4, 1 mM HEPES, and 0.1% bovine serum albumin [BSA; Sigma]). 200 μL aliquots were extracted from the basolateral chamber every 15 min and replaced by fresh transport buffer. […] [^3H]-vincristine was purchased from American Radiolabeled Chemicals (St. Louis, Mo., USA), while all other radiolabeled compounds were acquired from PerkinElmer (Waltham, Mass., USA). All compound incubations were conducted at 37° C. and carried out on a rotator. Triplicate filters were used for all permeability studies.

Data set [3] concerns IMR90-4-derived BMECs. The data set can be described thus: in vitro. The settings on record: for permeability: human, 1 h. As to the method:
as §1

Data set [4] deals with hCMEC/D3 immortalized human BMEC line. The conditions noted are these: cited from earlier work.
[5] abbreviates: RA treatment and optimized neural cell co-culture.

Take `CC1(C)C(=O)C(C)(C)c2cc(C(=O)Nc3ccc(C(=O)O)cc3)ccc21` [BMS 753]: the “induction of elevated TEER” value in data set [1] is listed as “induce elevated TEER”.

On to `C[C@H](CCC(=O)O)[C@H]1CC[C@H]2[C@@H]3[C@H](O)C[C@@H]4C[C@H](O)CC[C@]4(C)[C@H]3C[C@H](O)[C@]12C` [cholic acid], for which, in data set [1], the “induction of elevated TEER” value is “not to induce elevated TEER”.

As for `CC(=O)[C@H]1[C@H](C#N)C[C@H]2[C@@H]3CC=C4C[C@@H](O)CC[C@]4(C)[C@H]3CC[C@@]21C` [pregnenolone-16α-carbonitrile], the “induction of elevated TEER” value in data set [1] was “not to induce elevated TEER”.

Turning to `C=C1CC[C@H](O)C/C1=C/C=C1\CCC[C@]2(C)[C@@H]([C@H](C)CCCC(C)(C)O)CC[C@@H]12` [25-hydroxyvitamin D3], the “induction of elevated TEER” value in data set [1] is on record as “not to induce elevated TEER”.

With `N[C@@H](Cc1cc(I)c(Oc2ccc(O)cc2)c(I)c1)C(=O)O` [3,5-diiodo-L-thyronine], the “induction of elevated TEER” value in data set [1] is “not to induce elevated TEER”.

Take `CC1=C(/C=C/C(C)=C\C=C\C(C)=C\C(=O)O)C(C)(C)CCC1` [9-cis RA]: in data set [1] (two isoforms of RA tested), the “enhancement by RA isoform” value was “producing the desired enhancement”.

With `O=C(O)CCc1cc(I)c(O)c(I)c1` [3,5-diiodo-4-hydroxyphenylpropionic acid], in data set [1], the “induction of elevated TEER” value was “not to induce elevated TEER”.

Turning to `Clc1ccc(-c2nc3sccn3c2/C=N/OCc2ccc(Cl)c(Cl)c2)cc1` [CITCO], in data set [1], the “induction of elevated TEER” value is “not to induce elevated TEER”.

As for `O=Cc1c2[nH]c3ccccc3c2cc2[nH]c3ccccc3c12` [6-formylindolo[3,2-B]carbazole], the “induction of elevated TEER” value in data set [1] was “not to induce elevated TEER”.

In the case of `Cc1cccc(Nc2cc(Cl)nc(SCC(=O)O)n2)c1C` [WY-14643], the “induction of elevated TEER” value in data set [1] is reported as “not to induce elevated TEER”.

For the molecule `CC/C=C\C/C=C\C/C=C\C/C=C\C/C=C\C/C=C\CCC(=O)O` [docosa-4Z,7Z,10Z,13Z,16Z,19Z-hexaenoic acid], the “induction of elevated TEER” value in data set [1] is listed as “not to induce elevated TEER”.

As for `CCCCC[C@H](O)/C=C/[C@@H]1[C@H]2C/C(=C/CCCC(=O)O)C[C@H]2C[C@H]1O` [carbacyclin], the “induction of elevated TEER” value in data set [1] is recorded as “induce elevated TEER”.

On to `CC1(C)CC=C(c2ccccc2)c2cc(/C=C/c3ccc(C(=O)O)cc3)ccc21` [BMS 453], for which the “induction of elevated TEER” value in data set [1] is given as “not to induce elevated TEER”.

Regarding `COc1cc2c(c(OC)c1OC)-c1ccc(OC)c(=O)cc1[C@@H](NC(C)=O)CC2` [Colchicine, colchicine], the Papp A→B at 1 h in data set [2] (RA-treated cells without co-culture) is 0.383 ×10⁻⁶ cm/s; in data set [2] (optimized co-culture conditions (pericyte/hNPC), RA-treated) it was 0.25 ×10⁻⁶ cm/s. Also, the “Average Pe” value is 0.015 ± 0.007 10^−3 cm/min in data set [3] (setting [5]) and 0.023 ± 0.0096 10^−3 cm/min in data set [3] (RA treatment only). Moreover, in data set [4] (hCMEC/D3, colchicine and vincristine estimated from graphical data), the permeability entry was “approximately 1.6×10^−3 cm/min”.

Consider CD 3254, for which, in data set [1], the “induction of elevated TEER” value was “induce elevated TEER”.

As for `CCCCCC#CCC#CCC#CCC#CCCCC(=O)O` [5,8,11,14-eicosatetraynoic acid], in data set [1], the “induction of elevated TEER” value is on record as “not to induce elevated TEER”.

In turn, `CC[C@]1(O)C[C@H]2CN(CCc3c([nH]c4ccccc34)[C@@](C(=O)OC)(c3cc4c(cc3OC)N(C=O)[C@H]3[C@@](O)(C(=O)OC)[C@H](OC(C)=O)[C@]5(CC)C=CCN6CC[C@]43[C@@H]65)C2)C1` [Vincristine, vincristine] showed a Papp A→B at 1 h in data set [2] of 0.433 ×10⁻⁶ cm/s. The figures for the permeability in data set [3] and in data set [4] were 3.5±0.9×10^−5 cm/min and “approximately 0.75×10^−3 cm/min”, respectively.

In data set [2], `COc1cc2nc(N3CCN(C(=O)c4ccco4)CC3)nc(N)c2cc1OC` [Prazosin, prazosin] gave a Papp A→B at 1 h of 1.83 ×10⁻⁶ cm/s. Further, the results for the “Average Pe” value in data set [3] (setting [5]) and in data set [3] (RA treatment only) were 0.11 ± 0.006 10^−3 cm/min and 0.2 ± 0.05 10^−3 cm/min, respectively. Moreover, the permeability in data set [3] was 2±0.5×10^−4 cm/min.

What is called Papp A→B is the apparent permeability from the apical to the basolateral side of a cell layer. Read a low Papp A→B as poor permeation.
